# Assay results published in ChEMBL document CHEMBL1201862, “PubChem BioAssay data set” (2004).
#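 Step 1: Grow cells in 96-well plates. Step 2: Expose to compound for 48 hours at 5 concentrations. Step 3: Interpolate endpoints linearly; if unreached, use highest concentration. At the GI50, growth is halved.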 Active and inactive are the calls of the source. Cut-off read from the data, not from the text of the source: active = GI50 up to about 1.1 µM and inactive = higher.
# Experiments:
# Experiment in all cases: inhibition of tumour cell growth, NCI panel, 48 h
# SW-620 = tested on: SW-620
# NCI-H522 = tested on: NCI-H522
# NCI-H23 = tested on: NCI-H23
# U-251 = tested on: U-251
# EKVX = tested on: EKVX
# UACC-257 = tested on: UACC-257
# MDA-MB-231 = tested on: MDA-MB-231
# COLO 205 = tested on: COLO 205
# SK-OV-3 = tested on: SK-OV-3
# SF-295 = tested on: SF-295
# NCI/ADR-RES = tested on: NCI/ADR-RES
# OVCAR-3 = tested on: OVCAR-3
# HCT-116 = tested on: HCT-116
# A498 = tested on: A498
# OVCAR-4 = tested on: OVCAR-4
# UACC-62 = tested on: UACC-62
# TK-10 = tested on: TK-10
# Hs-578T = tested on: Hs-578T
# IGROV-1 = tested on: IGROV-1
# Malme-3M = tested on: Malme-3M
# KM12 = tested on: KM12
# ACHN = tested on: ACHN
# RXF 393 = tested on: RXF 393
# MOLT-4 = tested on: MOLT-4
# 786-0 = tested on: 786-0
# SK-MEL-28 = tested on: SK-MEL-28
# PC-3 = tested on: PC-3
# OVCAR-5 = tested on: OVCAR-5
# HCT-15 = tested on: HCT-15
# NCI-H226 = tested on: NCI-H226
# SK-MEL-5 = tested on: SK-MEL-5
# UO-31 = tested on: UO-31
# SR = tested on: SR
# BT-549 = tested on: BT-549
# SF-268 = tested on: SF-268
# HOP-62 = tested on: HOP-62
# MCF7 = tested on: MCF7
# DU-145 = tested on: DU-145
# OVCAR-8 = tested on: OVCAR-8
# SN12C = tested on: SN12C
# MDA-N = tested on: MDA-N
# A549 = tested on: A549
# HOP-92 = tested on: HOP-92
# SNB-19 = tested on: SNB-19
# K562 = tested on: K562
# RPMI-8226 = tested on: RPMI-8226
# SF-539 = tested on: SF-539
# NCI-H460 = tested on: NCI-H460
# HCC 2998 = tested on: HCC 2998
# SK-MEL-2 = tested on: SK-MEL-2
# LOX IMVI = tested on: LOX IMVI
# MDA-MB-435 = tested on: MDA-MB-435
# CAKI-1 = tested on: CAKI-1
# HT-29 = tested on: HT-29
# HL-60 = tested on: HL-60
# T47D = tested on: T47D
# SNB-75 = tested on: SNB-75
# M14 = tested on: M14
# CCRF-CEM = tested on: CCRF-CEM
smiles,measurement,setting,value
CC[C@@]1(O)C(=O)OCc2c1cc1n(c2=O)Cc2c-1nc1ccccc1c2/C=N\NC(=O)C1CCCN1 (stereo partly specified),GI50,SW-620,0.185 µM (active)
same,GI50,NCI-H522,0.282 µM (active)
same,GI50,NCI-H23,0.0509 µM (active)
same,GI50,U-251,0.0362 µM (active)
same,GI50,EKVX,9.55 µM (inactive)
same,GI50,UACC-257,3.01 µM (inactive)
same,GI50,MDA-MB-231,14.7 µM (inactive)
same,GI50,COLO 205,6.05 µM (inactive)
same,GI50,SK-OV-3,0.442 µM (active)
same,GI50,SF-295,0.386 µM (active)
same,GI50,NCI/ADR-RES,0.513 µM (active)
same,GI50,OVCAR-3,4.42 µM (inactive)
same,GI50,HCT-116,0.354 µM (active)
same,GI50,A498,0.435 µM (active)
same,GI50,OVCAR-4,19.6 µM (inactive)
same,GI50,UACC-62,< 0.0182 µM (active)
same,GI50,TK-10,19.4 µM (inactive)
same,GI50,Hs-578T,22.5 µM (inactive)
same,GI50,IGROV-1,5.2 µM (inactive)
same,GI50,Malme-3M,1.79 µM (inactive)
same,GI50,KM12,3.11 µM (inactive)
same,GI50,ACHN,0.0283 µM (active)
same,GI50,RXF 393,0.364 µM (active)
same,GI50,MOLT-4,0.221 µM (active)
same,GI50,786-0,0.0461 µM (active)
same,GI50,SK-MEL-28,6.58 µM (inactive)
same,GI50,PC-3,2.47 µM (inactive)
same,GI50,OVCAR-5,4.93 µM (inactive)
same,GI50,HCT-15,1.31 µM
same,GI50,NCI-H226,0.117 µM (active)
same,GI50,SK-MEL-5,0.238 µM (active)
same,GI50,UO-31,0.457 µM (active)
same,GI50,SR,< 0.01 µM (active)
same,GI50,BT-549,1.49 µM (inactive)
same,GI50,SF-268,< 0.0225 µM (active)
same,GI50,HOP-62,< 0.0196 µM (active)
same,GI50,MCF7,< 0.0177 µM (active)
same,GI50,DU-145,0.133 µM (active)
same,GI50,OVCAR-8,0.258 µM (active)
same,GI50,SN12C,0.0275 µM (active)
same,GI50,MDA-N,1.8 µM (inactive)
same,GI50,A549,0.826 µM (active)
same,GI50,HOP-92,0.601 µM (active)
same,GI50,SNB-19,< 0.0209 µM (active)
same,GI50,K562,0.163 µM (active)
same,GI50,RPMI-8226,0.818 µM (active)
same,GI50,SF-539,< 0.01 µM (active)
same,GI50,NCI-H460,0.266 µM (active)
same,GI50,HCC 2998,1.98 µM (inactive)
same,GI50,SK-MEL-2,11.8 µM (inactive)
same,GI50,LOX IMVI,0.09 µM (active)
same,GI50,MDA-MB-435,2 µM (inactive)
same,GI50,CAKI-1,0.254 µM (active)
same,GI50,HT-29,1.15 µM (inactive)
same,GI50,HL-60,0.046 µM (active)
same,GI50,T47D,0.0135 µM (active)
same,GI50,SNB-75,0.104 µM (active)
same,GI50,M14,0.147 µM (active)
O=C1CCSc2nc(-c3ccc4c(c3)OCO4)nn21,GI50,SW-620,> 10 µM (inactive)
same,GI50,NCI-H522,> 10 µM (inactive)
same,GI50,NCI-H23,> 10 µM (inactive)
same,GI50,U-251,> 10 µM (inactive)
same,GI50,EKVX,> 10 µM (inactive)
same,GI50,UACC-257,> 10 µM (inactive)
same,GI50,MDA-MB-231,> 10 µM (inactive)
same,GI50,COLO 205,> 10 µM (inactive)
same,GI50,SK-OV-3,> 10 µM (inactive)
same,GI50,SF-295,> 10 µM (inactive)
same,GI50,NCI/ADR-RES,> 10 µM (inactive)
same,GI50,OVCAR-3,> 10 µM (inactive)
same,GI50,HCT-116,> 10 µM (inactive)
same,GI50,CCRF-CEM,> 10 µM (inactive)
same,GI50,A498,> 10 µM (inactive)
same,GI50,OVCAR-4,> 10 µM (inactive)
same,GI50,UACC-62,> 10 µM (inactive)
same,GI50,TK-10,> 10 µM (inactive)
same,GI50,Hs-578T,> 10 µM (inactive)
same,GI50,IGROV-1,> 10 µM (inactive)
same,GI50,Malme-3M,> 10 µM (inactive)
same,GI50,KM12,> 10 µM (inactive)
same,GI50,ACHN,> 10 µM (inactive)
same,GI50,RXF 393,> 10 µM (inactive)
same,GI50,MOLT-4,> 10 µM (inactive)
same,GI50,786-0,> 10 µM (inactive)
same,GI50,SK-MEL-28,> 10 µM (inactive)
same,GI50,PC-3,> 10 µM (inactive)
same,GI50,OVCAR-5,> 10 µM (inactive)
same,GI50,HCT-15,> 10 µM
same,GI50,NCI-H226,> 10 µM (inactive)
same,GI50,SK-MEL-5,> 10 µM (inactive)
same,GI50,SR,> 10 µM (inactive)
same,GI50,BT-549,> 10 µM (inactive)
same,GI50,SF-268,> 10 µM (inactive)
same,GI50,HOP-62,> 10 µM (inactive)
same,GI50,MCF7,> 10 µM (inactive)
same,GI50,DU-145,> 10 µM (inactive)
same,GI50,OVCAR-8,> 10 µM (inactive)
same,GI50,SN12C,> 10 µM (inactive)
same,GI50,MDA-N,> 10 µM (inactive)
same,GI50,A549,> 10 µM (inactive)
same,GI50,HOP-92,> 10 µM (inactive)
same,GI50,SNB-19,> 10 µM (inactive)
same,GI50,K562,> 10 µM (inactive)
same,GI50,RPMI-8226,> 10 µM (inactive)
same,GI50,SF-539,> 10 µM (inactive)
same,GI50,NCI-H460,> 10 µM (inactive)
same,GI50,HCC 2998,> 10 µM (inactive)
same,GI50,SK-MEL-2,> 10 µM (inactive)
same,GI50,LOX IMVI,> 10 µM (inactive)
same,GI50,MDA-MB-435,> 10 µM (inactive)
same,GI50,CAKI-1,> 10 µM (inactive)
same,GI50,HT-29,> 10 µM (inactive)
same,GI50,HL-60,> 10 µM (inactive)
same,GI50,T47D,> 10 µM (inactive)
same,GI50,SNB-75,> 10 µM (inactive)
same,GI50,M14,> 10 µM (inactive)
